ChEMBL document CHEMBL1201862, “PubChem BioAssay data set” (2004)
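96-well plates; 48 h exposure; 5 concentrations. Endpoints by linear interpolation between flanking doses. Not reached: highest tested concentration assigned. The concentration for 50% growth inhibition is given as GI50.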 Activity calls are given as the source filed them. No stated cut-off is given here; in the data, active = GI50 up to about 1.1 µM and inactive = higher.

What was measured:
Test in all cases: inhibition of tumour cell growth, NCI panel, 48 h
[1] = tested on: 786-0
[2] = tested on: A498
[3] = tested on: A549
[4] = tested on: ACHN
[5] = tested on: BT-549
[6] = tested on: CAKI-1
[7] = tested on: CCRF-CEM
[8] = tested on: COLO 205
[9] = tested on: DU-145
[10] = tested on: EKVX
[11] = tested on: HCT-116
[12] = tested on: HCT-15
[13] = tested on: HL-60
[14] = tested on: HOP-62
[15] = tested on: HT-29
[16] = tested on: Hs-578T
[17] = tested on: IGROV-1
[18] = tested on: K562
[19] = tested on: KM12
[20] = tested on: LOX IMVI
[21] = tested on: M14
[22] = tested on: MCF7
[23] = tested on: MDA-MB-231
[24] = tested on: MDA-MB-435
[25] = tested on: MDA-N
[26] = tested on: MOLT-4
[27] = tested on: Malme-3M
[28] = tested on: NCI-H226
[29] = tested on: NCI-H23
[30] = tested on: NCI-H522
[31] = tested on: NCI/ADR-RES
[32] = tested on: OVCAR-3
[33] = tested on: OVCAR-4
[34] = tested on: OVCAR-5
[35] = tested on: OVCAR-8
[36] = tested on: PC-3
[37] = tested on: RPMI-8226
[38] = tested on: RXF 393
[39] = tested on: SF-268
[40] = tested on: SF-295
[41] = tested on: SK-MEL-28
[42] = tested on: SK-MEL-2
[43] = tested on: SK-MEL-5
[44] = tested on: SK-OV-3
[45] = tested on: SN12C
[46] = tested on: SNB-19
[47] = tested on: SNB-75
[48] = tested on: SR
[49] = tested on: SW-620
[50] = tested on: T47D
[51] = tested on: TK-10
[52] = tested on: U-251
[53] = tested on: UACC-257
[54] = tested on: UACC-62
[55] = tested on: UO-31
[56] = tested on: NCI-H460
[57] = tested on: SF-539

NC(Cc1c[nH]c2ccc([N+](=O)[O-])cc12)C(=O)O (stereo not drawn)
GI50 [1]: > 100 µM (inactive) | GI50 [2]: > 100 µM (inactive) | GI50 [3]: > 100 µM (inactive) | GI50 [4]: > 100 µM (inactive) | GI50 [5]: > 100 µM (inactive) | GI50 [6]: > 100 µM (inactive) | GI50 [7]: > 100 µM (inactive) | GI50 [8]: > 100 µM (inactive) | GI50 [9]: > 100 µM (inactive) | GI50 [10]: > 100 µM (inactive) | GI50 [11]: > 100 µM (inactive) | GI50 [12]: > 100 µM | GI50 [13]: > 100 µM (inactive) | GI50 [14]: > 100 µM (inactive) | GI50 [15]: > 100 µM (inactive) | GI50 [16]: 24.7 µM (inactive) | GI50 [17]: > 100 µM (inactive) | GI50 [18]: > 100 µM (inactive) | GI50 [19]: > 100 µM (inactive) | GI50 [20]: > 100 µM (inactive) | GI50 [21]: > 100 µM (inactive) | GI50 [22]: > 100 µM (inactive) | GI50 [23]: > 100 µM (inactive) | GI50 [24]: > 100 µM (inactive) | GI50 [25]: > 100 µM (inactive) | GI50 [26]: > 100 µM (inactive) | GI50 [27]: > 100 µM (inactive) | GI50 [28]: > 100 µM (inactive) | GI50 [29]: > 100 µM (inactive) | GI50 [30]: > 100 µM (inactive) | GI50 [31]: > 100 µM (inactive) | GI50 [32]: > 100 µM (inactive) | GI50 [33]: > 100 µM (inactive) | GI50 [34]: > 100 µM (inactive) | GI50 [35]: > 100 µM (inactive) | GI50 [36]: > 100 µM (inactive) | GI50 [37]: > 100 µM (inactive) | GI50 [38]: > 100 µM (inactive) | GI50 [39]: > 100 µM (inactive) | GI50 [40]: > 100 µM (inactive) | GI50 [41]: > 100 µM (inactive) | GI50 [42]: > 100 µM (inactive) | GI50 [43]: > 100 µM (inactive) | GI50 [44]: > 100 µM (inactive) | GI50 [45]: > 100 µM (inactive) | GI50 [46]: > 100 µM (inactive) | GI50 [47]: > 100 µM (inactive) | GI50 [48]: > 100 µM (inactive) | GI50 [49]: > 100 µM (inactive) | GI50 [50]: > 100 µM (inactive) | GI50 [51]: > 100 µM (inactive) | GI50 [52]: > 100 µM (inactive) | GI50 [53]: > 100 µM (inactive) | GI50 [54]: > 100 µM (inactive) | GI50 [55]: > 100 µM (inactive)

NNc1nncc2[nH]cnc12
GI50 [1]: > 100 µM (inactive) | GI50 [2]: > 100 µM (inactive) | GI50 [3]: > 100 µM (inactive) | GI50 [4]: > 100 µM (inactive) | GI50 [5]: > 100 µM (inactive) | GI50 [6]: > 100 µM (inactive) | GI50 [7]: > 100 µM (inactive) | GI50 [8]: > 100 µM (inactive) | GI50 [9]: > 100 µM (inactive) | GI50 [10]: > 100 µM (inactive) | GI50 [11]: > 100 µM (inactive) | GI50 [12]: > 100 µM | GI50 [13]: 35.8 µM (inactive) | GI50 [14]: > 100 µM (inactive) | GI50 [15]: > 100 µM (inactive) | GI50 [16]: > 100 µM (inactive) | GI50 [17]: > 100 µM (inactive) | GI50 [18]: > 100 µM (inactive) | GI50 [19]: > 100 µM (inactive) | GI50 [21]: > 100 µM (inactive) | GI50 [22]: > 100 µM (inactive) | GI50 [23]: > 100 µM (inactive) | GI50 [24]: > 100 µM (inactive) | GI50 [25]: > 100 µM (inactive) | GI50 [26]: > 100 µM (inactive) | GI50 [28]: > 100 µM (inactive) | GI50 [29]: > 100 µM (inactive) | GI50 [56]: > 100 µM (inactive) | GI50 [31]: > 100 µM (inactive) | GI50 [32]: > 100 µM (inactive) | GI50 [34]: > 100 µM (inactive) | GI50 [35]: > 100 µM (inactive) | GI50 [36]: > 100 µM (inactive) | GI50 [37]: > 100 µM (inactive) | GI50 [38]: > 100 µM (inactive) | GI50 [39]: > 100 µM (inactive) | GI50 [40]: > 100 µM (inactive) | GI50 [57]: > 100 µM (inactive) | GI50 [41]: > 100 µM (inactive) | GI50 [42]: > 100 µM (inactive) | GI50 [43]: > 100 µM (inactive) | GI50 [45]: > 100 µM (inactive) | GI50 [46]: > 100 µM (inactive) | GI50 [47]: > 100 µM (inactive) | GI50 [48]: > 100 µM (inactive) | GI50 [49]: > 100 µM (inactive) | GI50 [50]: > 100 µM (inactive) | GI50 [51]: > 100 µM (inactive) | GI50 [52]: > 100 µM (inactive) | GI50 [53]: > 100 µM (inactive) | GI50 [54]: > 100 µM (inactive) | GI50 [55]: > 100 µM (inactive)

CC(=O)OC1CCC2(C)C(CCC3C4CC=C(C5(C)OCCO5)C4(C)CCC32)C1 (stereo not drawn)
GI50 [1]: 30.4 µM (inactive) | GI50 [2]: 24.9 µM (inactive) | GI50 [3]: 26.7 µM (inactive) | GI50 [4]: 25.1 µM (inactive) | GI50 [5]: 20.6 µM (inactive) | GI50 [6]: 28.3 µM (inactive) | GI50 [7]: 19.5 µM (inactive) | GI50 [8]: 17.6 µM (inactive) | GI50 [9]: 41.3 µM (inactive) | GI50 [10]: 21.7 µM (inactive) | GI50 [11]: 20.1 µM (inactive) | GI50 [12]: 27.2 µM | GI50 [13]: 19.9 µM (inactive) | GI50 [14]: 19.1 µM (inactive) | GI50 [15]: 19.5 µM (inactive) | GI50 [16]: 23.3 µM (inactive) | GI50 [17]: 24.2 µM (inactive) | GI50 [18]: 25.1 µM (inactive) | GI50 [19]: 23.6 µM (inactive) | GI50 [20]: 16.9 µM (inactive) | GI50 [21]: 23 µM (inactive) | GI50 [22]: 22.6 µM (inactive) | GI50 [23]: 33.2 µM (inactive) | GI50 [24]: 20.3 µM (inactive) | GI50 [25]: 20.3 µM (inactive) | GI50 [26]: 17.3 µM (inactive) | GI50 [27]: 22.1 µM (inactive) | GI50 [28]: 25.9 µM (inactive) | GI50 [29]: 25.6 µM (inactive) | GI50 [56]: 20 µM (inactive) | GI50 [31]: 20.6 µM (inactive) | GI50 [32]: 19.7 µM (inactive) | GI50 [33]: 19.7 µM (inactive) | GI50 [34]: 22.1 µM (inactive) | GI50 [35]: 20.1 µM (inactive) | GI50 [36]: 17.3 µM (inactive) | GI50 [37]: 14.4 µM (inactive) | GI50 [38]: 17.7 µM (inactive) | GI50 [39]: 27.8 µM (inactive) | GI50 [40]: 26.1 µM (inactive) | GI50 [57]: 20.5 µM (inactive) | GI50 [41]: 21.2 µM (inactive) | GI50 [42]: 18.5 µM (inactive) | GI50 [43]: 15.6 µM (inactive) | GI50 [44]: 47.9 µM (inactive) | GI50 [45]: 19.6 µM (inactive) | GI50 [46]: 30.2 µM (inactive) | GI50 [47]: 28.8 µM (inactive) | GI50 [48]: 17.1 µM (inactive) | GI50 [49]: 21 µM (inactive) | GI50 [50]: 22.9 µM (inactive) | GI50 [51]: 22.5 µM (inactive) | GI50 [52]: 18 µM (inactive) | GI50 [53]: 18.7 µM (inactive) | GI50 [54]: 19.9 µM (inactive) | GI50 [55]: 25.4 µM (inactive)
